Test results as given in the supplement of paper PMC10307832.

Assays:
Assay in all cases: relative viability (nuclei count vs DMSO), 5 days (fraction); higher = more cells survive
[1] = compound: CCn1c(-c2nonc2N)nc2c(C#CC(C)(C)O)ncc(OC[C@H]3CCCNC3)c21 + COc1cc2c(Oc3ccc(NC(=O)C4(C(=O)Nc5ccc(F)cc5)CC4)cc3F)ccnc2cc1OCCCN1CCOCC1 [Foretinib] (partner 0.25 µM)
Procedure, shortened: (§1)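 Cells from lung cancer lines were seeded into 1536-well plates and, one day later, dosed by pin tool. Treatments were either a single drug or a fixed dose of an anchor drug with five library-drug doses (not always all listed) in √10 steps. After 5 days, nuclei were stained in a one-step fixation (final 0.05% Triton X-100, 1% formaldehyde, 1 ug/ml Hoechst) and counted on 4× images, and relative viability is the treated-to-vehicle nuclei ratio, as the median of duplicate plates.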

BAM7 + Vorinostat = compound: CCOC1=CC=CC=C1N=NC2=C(NN(C2=O)C3=NC(=CS3)C4=CC=CC=C4)C [BAM7] + O=C(CCCCCCC(=O)Nc1ccccc1)NO [Vorinostat] (partner 1 µM)
Procedure, shortened: as §1

[2] = compound: CCn1c(-c2nonc2N)nc2c(C#CC(C)(C)O)ncc(OC[C@H]3CCCNC3)c21 + C[C@@H](Oc1cc(-c2cnn(C3CCNCC3)c2)cnc1N)c1c(Cl)ccc(F)c1Cl [Crizotinib] (partner 1 µM)
Procedure, shortened: as §1

BAM7 + AZD7762 = compound: CCOC1=CC=CC=C1N=NC2=C(NN(C2=O)C3=NC(=CS3)C4=CC=CC=C4)C [BAM7] + NC(=O)Nc1cc(-c2cccc(F)c2)sc1C(=O)N[C@H]1CCCNC1 [AZD7762] (partner 0.2 µM)
Procedure, shortened: as §1

Cell Line | relative viability ([1]; first compound 0.01 µM) | relative viability ([1]; first compound 0.1 µM) | relative viability ([1]; first compound 0.3162 µM) | relative viability ([1]; first compound 1 µM) | relative viability (BAM7 + Vorinostat; first compound 0.5 µM) | relative viability (BAM7 + Vorinostat; first compound 5 µM) | relative viability (BAM7 + Vorinostat; first compound 15.81 µM) | relative viability (BAM7 + Vorinostat; first compound 50 µM) | relative viability ([2]; first compound 0.01 µM) | relative viability ([2]; first compound 0.03162 µM) | relative viability ([2]; first compound 0.1 µM) | relative viability ([2]; first compound 0.3162 µM) | relative viability ([2]; first compound 1 µM) | relative viability (BAM7 + AZD7762; first compound 0.5 µM) | relative viability (BAM7 + AZD7762; first compound 5 µM) | relative viability (BAM7 + AZD7762; first compound 15.81 µM) | relative viability (BAM7 + AZD7762; first compound 50 µM) | relative viability ([1]; first compound 0.03162 µM)
201T | 1.14 | 1.14 | 1.09 | 0.995 | 0.797 | 0.78 | 0.716 | 0.71 | 1.01 | 1.03 | 1.04 | 1 | 1.03 | 0.705 | 0.688 | 0.715 | 0.678 | 
A-427 | 0.978 | 1.1 | 0.981 | 0.991 | 0.829 | 0.876 | 0.834 | 0.852 | 0.925 | 0.966 | 0.978 | 0.828 | 0.846 | 0.743 | 0.848 | 0.802 | 0.737 | 1.23
ABC-1 | 1.04 | 1.01 | 0.813 | 1.08 | 1.04 | 1.45 | 0.983 | 1.18 | 1.37 | 1.27 | 0.867 | 1.11 | 0.608 | 0.755 | 1.29 | 0.863 | 0.783 | 1.28
BEN | 0.615 | 0.7 | 0.686 | 0.683 | 0.573 | 0.61 | 0.523 | 0.544 | 0.962 | 1.11 | 0.758 | 0.714 | 0.885 | 0.689 | 0.802 | 0.939 | 0.74 | 0.467
CAL-12T | 1.15 | 1.05 | 1.05 | 1.07 | 0.794 | 0.788 | 0.751 | 0.655 | 0.8 | 0.653 | 0.546 | 0.738 | 0.84 | 0.589 | 0.714 | 0.557 | 0.609 | 1.05
ChaGo-K-1 | 0.802 | 0.852 | 0.911 | 0.896 | 0.627 | 0.787 | 0.701 | 0.742 | 1.05 | 1.14 | 1.13 | 1.05 | 1.19 | 0.831 | 0.891 | 0.843 | 0.808 | 0.849
EKVX | 0.85 | 0.723 | 0.797 | 0.75 | 0.611 | 0.664 | 0.457 | 0.513 | 0.845 | 0.929 | 1.03 | 0.667 | 0.795 | 0.871 | 0.617 | 0.668 | 0.704 | 0.809
EMC-BAC-2 | 1.06 | 0.952 | 0.973 | 1.01 | 0.478 | 0.485 | 0.658 | 0.483 | 0.773 | 0.846 | 0.696 | 0.738 | 0.759 | 1.15 | 0.999 | 1.22 | 1.24 | 1.02
EPLC-272H | 0.657 | 0.675 | 0.632 | 0.738 | 0.623 | 0.427 | 0.477 | 0.358 | 0.962 | 1.09 | 0.892 | 0.802 | 0.904 | 0.23 | 0.301 | 0.226 | 0.289 | 0.711
H3255 | 0.833 | 0.891 | 0.875 | 0.777 | 0.819 | 0.763 | 0.733 | 0.811 | 0.805 | 0.983 | 0.804 | 0.598 | 0.782 | 0.831 | 0.838 | 0.73 | 0.847 | 0.826
HARA | 0.848 | 0.864 | 0.833 | 0.876 | 0.333 | 0.767 | 0.304 | 0.439 | 0.976 | 1.01 | 1.05 | 1.03 | 1.02 | 0.21 | 0.269 | 0.356 | 0.195 | 1.01
HCC-15 | 0.995 | 1.05 | 0.903 | 0.92 | 0.703 | 0.729 | 0.605 | 0.667 | 0.764 | 0.868 | 0.758 | 0.748 | 0.726 | 1.29 | 1.24 | 1.06 | 1.21 | 1.04
HCC-44 |  |  |  |  | 1.02 | 1.11 | 1.04 | 1.07 | 0.778 | 0.803 | 0.773 | 0.786 | 0.758 | 1.03 | 0.964 | 1.05 | 0.983 | 
HCC-78 | 0.515 | 0.539 | 0.532 | 0.527 | 0.382 | 0.455 | 0.436 | 0.459 | 0.344 | 0.353 | 0.324 | 0.297 | 0.322 | 0.635 | 1.4 | 0.702 | 0.627 | 0.523
HCC-366 | 0.931 | 0.975 | 0.907 | 0.965 | 0.301 | 0.28 | 0.356 | 0.344 | 0.505 | 0.644 | 0.59 | 0.501 | 0.534 | 0.173 | 0.19 | 0.191 | 0.186 | 0.99
